The values below are quoted from earlier work in US11648199B2 (AI Therapeutics, Inc, priority 2014, dated 2023).

For data set [1] the following is noted: cancer patients administered temsirolimus or everolimus; cited from earlier work.
For data set [2] the following is noted: clinical use; cited from earlier work.

`CO[C@H]1C[C@@H]2CC[C@@H](C)[C@@](O)(O2)C(=O)C(=O)N2CCCC[C@H]2C(=O)O[C@H]([C@H](C)C[C@@H]2CC[C@@H](OCCO)[C@H](OC)C2)CC(=O)[C@H](C)/C=C(\C)[C@@H](O)[C@@H](OC)C(=O)[C@H](C)C[C@H](C)/C=C/C=C/C=C/1C` [everolimus]: in data set [1], the “patients who may experience mild grade pulmonary toxicity” value is on record as 10%.
Consider `CO[C@H]1C[C@@H]2CC[C@@H](C)[C@@](O)(O2)C(=O)C(=O)N2CCCC[C@H]2C(=O)O[C@H]([C@H](C)C[C@@H]2CC[C@@H](OC(=O)C(C)(CO)CO)[C@H](OC)C2)CC(=O)[C@H](C)/C=C(\C)[C@@H](O)[C@@H](OC)C(=O)[C@H](C)C[C@H](C)/C=C/C=C/C=C/1C` [temsirolimus], for which, in data set [1], the “patients who may experience mild grade pulmonary toxicity” value was 10%.
As for `C=CC[C@@H]1/C=C(\C)C[C@H](C)C[C@H](OC)[C@H]2O[C@@](O)(C(=O)C(=O)N3CCCC[C@H]3C(=O)O[C@H](/C(C)=C/[C@@H]3CC[C@@H](O)[C@H](OC)C3)[C@H](C)[C@@H](O)CC1=O)[C@H](C)C[C@@H]2OC` [tacrolimus], the lung toxicity entry in data set [2] is on record as “did not show lung toxicity”.
